The subject of the experiment is 186277-243-T-J2-PDC complex spheroids, viability. Kind of experiment: Anticancer human tumor 186277-243-T-J2-PDC patient-derived colon adenocarcinoma cell line growth inhibition [RAS]. Particulars: for viability, T/C: stronger effect = lower value. An excerpt:
RAS pathway inhibitors in Combinations in Complex Spheroids
A high-throughput screen of multi-cell type tumor spheroids was designed to identify active combinations of RAS pathway inhibitors and targeted small molecules. Complex spheroids include a stromal component modeled by human endothelial cells (HUVEC) and fibroblasts modeled by human mesenchymal stem cells (MSCs). The concentration ranges selected for each drug and investigational agent were based upon clinically achievable concentrations if the clinical Cmax of the agent was known.
Compounds. The drugs and investigational agents: abemaciclib (NSC768073), cobimetinib (NSC768068), divarasib (GDC6063, NSC841802), docetaxel (NSC628503), GDC-1971 (RLY-1971, NSC841576), gemcitabine (NSC613327), inavolisib (NSC800729), ipatasertib (NSC767898), KB-0742 (NSC834161), MRTX-1133 (NSC836407), osimertinib (NSC779217), RMC-4630 (NSC839698), RMC-6236 (NSC851965), RMC-6291 (NSC852671), Ro-3306 (NSC812927), sapanisertib (NSC764658), SN-38 (NSC673596), staurosporine (NSC755774), SY5609 (NSC837396), and tovorafenib (DAY101, NSC766906), were obtained from the National Cancer Institute (NCI) Developmental Therapeutics Program Chemical Repository. The FDA-approved anticancer drug set is available from the NCI Developmental Therapeutics Program. […] The stock solutions were prepared in dimethyl sulfoxide (DMSO, Sigma-Aldrich, St. Louis, MO, cat. D2650) at 800-fold the tested concentration and stored at -70 degrees C prior to their use. All drugs and investigational agents were tested over a range starting from a high concentration at or near the clinical Cmax and decreasing in half-log increments. If the clinical Cmax for an agent had not been determined, the highest concentration tested was 10 microM.
Cell Culture. All cells were maintained in an incubator at 37 degrees C and 5% CO2 with 95% humidity. The PDC lines were cultured according to standard operating procedures established by the NCI PDMR. All PDCs were thawed and cultured in Matrigel-coated flasks prepared with a working solution of 1X Ham's F-12 nutrient mix, without supplementation (Invitrogen, Waltham, MA, cat. 11765054), 100 U/mL penicillin-streptomycin (Invitrogen, cat. 15140122), and 2.5% Matrigel (Corning Inc., Corning, NY, cat. 354248) for the first three passages. The 362531-283-R-J2-PDC and 782815-120-R-J1-PDC lines were cultured in 6C/Colon 1B media, which includes advanced DMEM/F-12 (Thermo Fisher Scientific, cat. 12634028), 10 mM HEPES (Thermo Fisher Scientific, cat. 15630080), 1X GlutaMAX supplement (Thermo Fisher Scientific, cat. 35050061), 0.1 mg/mL primocin (InvivoGen, San Diego, CA, cat. ant-pm-2), 10% defined fetal bovine serum, heat inactivated (HyClone Laboratories Inc., Logan, UT, cat. SH30070.03HI), 50% L-WRN conditioned media (ATCC, cat. CRL-3276), 1.25 mM N-Acetyl-L-cysteine (Sigma-Aldrich, cat. A9165), 10 mM nicotinamide (Sigma-Aldrich, cat. N0636), 1X B-27 supplement (Thermo Fisher Scientific, cat. 17504044), 1X N-2 supplement (Thermo Fisher Scientific, cat. 17502048), 50 ng/mL human EGF (Thermo Fisher Scientific, cat. PHG0311), and 10 microM Y-27632 dihydrochloride (Tocris Bioscience, cat. 1254). The K12877-001-R-J1-PDC line was cultured in 6I media, which includes all 6C/Colon 1B media plus 10 ng/mL human FGF-10 (PeproTech, cat. 100-26), 1 ng/mL human FGF-2 (PeproTech, cat. 100-18B), 1 µM prostaglandin E2 (Tocris Bioscience, cat. 2296), […] hydrocortisone (Sigma-Aldrich, cat. H4001), and […] bovine insulin (Sigma-Aldrich, cat. I6634). The K86415-001-R-J1-PDC line was cultured in 6D media, which includes all 6C/Colon 1B media components minus the L-WRN conditioned media. The 485176-168-R4-J1-PDC was cultured in PANC media, which includes all 6C/Colon 1B media plus 100 ng/mL human FGF-10 (PeproTech, cat. 100-26), 500 nM SB-431542 (Selleckchem, cat. S1067), and 10 nM gastrin (Tocris Bioscience, cat. 3006). […]

“And” between values parts separate entries of the source, which are not always exact repeats. Equal entries are not always repeated.
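Note: spheroids exposed to compounds for 7 days before viability read.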

Turning to `CC(=O)OC12COC1CC(O)C1(C)C(=O)C(O)C3=C(C)C(OC(=O)C(O)C(NC(=O)OC(C)(C)C)c4ccccc4)CC(O)(C(OC(=O)c4ccccc4)C21)C3(C)C` (centres undefined), the viability, T/C (compound 0.0316 µM) was 8.57% [middle of 4 runs]; the viability, T/C (compound 0.1 µM) is 7.52% [middle of 4 runs]; the viability, T/C (compound 0.316 µM) was 7.03% [middle of 4 runs]; the viability, T/C (compound 1 µM) was 6.22% [middle of 4 runs]; the viability, T/C (compound 3.16 µM) is 5.95% [middle of 4 runs]; the viability, T/C (compound 10 µM) is 6.14% [middle of 4 runs]. Further, the concentration for half-maximal inhibition (IC50) (curve of compound) is under 31.6 nM.
With `CCC(CC)c1cc(NC2CCC(N)C2)n2nccc2n1` (centres undefined), the viability, T/C was 98.2% [middle of 4 runs] (compound 0.0316 µM); 94.7% [middle of 4 runs] (compound 0.1 µM); 90.1% [middle of 4 runs] (compound 0.316 µM); 91.8% [middle of 4 runs] (compound 1 µM); 5.37% [middle of 4 runs] (compound 3.16 µM); 0.37% [middle of 4 runs] (compound 10 µM). The IC50 (curve of compound) is 1.77 µM [middle of 4 runs].
Take `Cc1nc(N2CCC3(CC2)COC(C)C3N)c(CO)nc1Sc1ccnc(N)c1Cl` (centres undefined): the viability, T/C by setting is: (compound 0.0316 µM) 101% [middle of 4 runs]; (compound 0.316 µM) 107% [middle of 4 runs]; (compound 1 µM) 110% (2×) and 105% and 119%; (compound 3.16 µM) 119% (2×) and 105% and 91.9%. In addition, the IC50 (curve of compound) is over 10000 nM.
With `NC1c2ccccc2OC12CCN(c1cnc3c(N4CCCc5ncccc54)n[nH]c3n1)CC2` (centres undefined), the viability, T/C reads like this: (compound 0.316 µM) 99.6% [middle of 4 runs]; (compound 10 µM) 73.3% [middle of 4 runs]. The IC50 (curve of compound) is over 10000 nM.
In the case of `C=CC(=O)Nc1cc(Nc2nccc(-c3cn(C)c4ccccc34)n2)c(OC)cc1N(C)CCN(C)C` + C#Cc1c(F)ccc2cc(O)cc(-c3ncc4c(N5CC6CCC(C5)N6)nc(OCC56CCCN5CC(F)C6)nc4c3F)c12, the half-inhibitory concentration (IC50) reads like this: (curve of first compound, second compound 0.0316 µM) 97.4 nM; (curve of first compound, second compound 0.1 µM) 34.5 nM; (curve of first compound, second compound 0.316 µM) under 3.16 nM; (curve of first compound, second compound 1 µM) under 3.16 nM; (curve of first compound, second compound 3.16 µM) under 3.16 nM; (curve of first compound, second compound 10 µM) under 3.16 nM. Further, the viability, T/C reads like this: (second compound 0.0316 µM, first compound 0.00316 µM) 67.1%; (second compound 0.0316 µM, first compound 0.01 µM) 76.4%; (second compound 0.0316 µM, first compound 0.0316 µM) 69.8%; (second compound 0.0316 µM, first compound 0.1 µM) 37.6%; (second compound 0.0316 µM, first compound 0.316 µM) 40.9%; (second compound 0.0316 µM, first compound 1 µM) 15%. The viability, T/C by setting is: (second compound 0.1 µM, first compound 0.00316 µM) 51.4%; (second compound 0.1 µM, first compound 0.01 µM) 61.5%; (second compound 0.1 µM, first compound 0.0316 µM) 52.3%; (second compound 0.1 µM, first compound 0.1 µM) 28.4%; (second compound 0.1 µM, first compound 0.316 µM) 16.5%; (second compound 0.1 µM, first compound 1 µM) 8.02%. The viability, T/C by setting is: (second compound 0.316 µM, first compound 0.00316 µM) 23.2%; (second compound 0.316 µM, first compound 0.01 µM) 31.3%; (second compound 0.316 µM, first compound 0.0316 µM) 22.7%; (second compound 0.316 µM, first compound 0.1 µM) 13.8%; (second compound 0.316 µM, first compound 0.316 µM) 10.4%; (second compound 0.316 µM, first compound 1 µM) 6.25%. Further, the viability, T/C reads like this: (second compound 1 µM, first compound 0.00316 µM) 15.8%; (second compound 1 µM, first compound 0.01 µM) 18%; (second compound 1 µM, first compound 0.0316 µM) 13.4%; (second compound 1 µM, first compound 0.1 µM) 11.4%; (second compound 1 µM, first compound 0.316 µM) 8.84%; (second compound 1 µM, first compound 1 µM) 6.02%. In addition, the viability, T/C is, setting by setting: (second compound 3.16 µM, first compound 0.00316 µM) 10.4%; (second compound 3.16 µM, first compound 0.01 µM) 12.5%; (second compound 3.16 µM, first compound 0.0316 µM) 11.1%; (second compound 3.16 µM, first compound 0.1 µM) 8.84%; (second compound 3.16 µM, first compound 0.316 µM) 7.79%; (second compound 3.16 µM, first compound 1 µM) 4.87%. The viability, T/C is, setting by setting: (second compound 10 µM, first compound 0.00316 µM) 9.04%; (second compound 10 µM, first compound 0.01 µM) 8.39%; (second compound 10 µM, first compound 0.0316 µM) 8.64%; (second compound 10 µM, first compound 0.1 µM) 7.72%; (second compound 10 µM, first compound 0.316 µM) 6.69%; (second compound 10 µM, first compound 1 µM) 3.95%.

The term viability, T/C denotes the result in the treated group divided by that in the control group, in per cent. As usually defined, the IC50 is the concentration that gives 50% inhibition.
